The experiment concerns Influenza A/WSN/Virus. The class given is cell-based.

“Ala Ser Gln Gly Thr Lys Arg Ser Tyr Glu Gln Met Glu Thr Asp Gly Glu Arg Gln (ASQGTKRSYEQMETDGERQ; listed as Homo sapiens) [NP-NLS oligopeptide, 19-amino acid NP-NLS oligopeptide corresponding to amino acids 2-20 of NP]”: the “inhibition of viral growth (hemagglutination titer)” value is “thousand-fold”.

The record behind these values is patent US7632801B2, “Identification and use of antiviral compounds that inhibit interaction of host cell proteins and viral proteins required for viral replication” (Mount Sinai School of Medicine of New York University, priority 1995, dated 2009).
